Measured values taken from PubChem BioAssay AID2060601 (Molecular Pharmacology Branch, DTP, NCI, 2025).
“And” between values parts separate entries of the source, which are not always exact repeats. Identical values can stand only once.

Tested on: 874868-142-R-J2-PDC complex spheroids, growth % test/control
Assay: Anticancer human tumor 874868-142-R-J2-PDC patient-derived head and neck squamous carcinoma cell line growth inhibition [CLK]
Conditions: for viability, T/C: stronger effect = lower value
Text: A high-throughput screen of multi-cell type tumor spheroids was designed to identify active combinations of […] and targeted small molecules. Complex spheroids include a stromal component modeled by human endothelial cells (HUVEC) and fibroblasts modeled by human mesenchymal stem cells (MSCs). The concentration ranges selected for each drug and investigational agent were based upon clinically achievable concentrations if the clinical Cmax of the agent was known.
Compounds. The drugs and investigational agents: cirtuvivint (SM08502; NSC835563), CC-671 (NSC850746), vemurafenib (NSC761431), tapotoclax (NSC804041), sotorasib (NSC818433), adagrasib (NSC831453), MRTX-1133 (NSC836407), BAY2416964 (NSC825713), copanlisib (NSC816437), inavolisib (NSC800729), abemaciclib (NSC768073), osimertinib (NSC779217), entinostat (NSC756642), eltanexor (KPT-8602, NSC794443), venetoclax (NSC766270), ceralasertib (NSC777638), bortezomib (NSC756655), olaparib (NSC753686), talazoparib (NSC767125), alisertib (NSC759677), peposertib (NSC802822), gemcitabine (NSC613327), 5-fluorouracil (NSC19893), SN-38 (NSC673596), oxaliplatin (NSC266046), paclitaxel (NSC125973), and doxorubicin (NSC123127), were obtained from the National Cancer Institute (NCI) Developmental Therapeutics Program Chemical Repository. The FDA-approved anticancer drug set is available from the Developmental Therapeutics Program at https://dtp.cancer.gov/organization/dscb/obtaining/available plates.htm. […] The stock solutions were prepared in dimethyl sulfoxide (DMSO, Sigma-Aldrich, St. Louis, MO, cat. D2650), except for the platinum complexes which were prepared in saline (Quality Biological, Gaithersburg, MD, cat. 114-055-101), at 800-fold the tested concentration and stored at -70 degrees C prior to their use. All drugs and investigational agents were tested over a range starting from a high concentration at or near the clinical Cmax and decreasing in half-log increments. If the clinical Cmax for an agent had not been determined, the highest concentration tested was 10 microM.
Cell Culture. All cells were maintained in an incubator at 37 degrees C and 5% CO2 with 95% humidity. The PDC lines were cultured according to standard operating procedures established by the NCI PDMR. Briefly, all PDCs were thawed and cultured in Matrigel-coated flasks prepared with a working solution of 1X Ham's F-12 nutrient mix, without supplementation (Invitrogen, Waltham, MA, cat. 11765054), 100 U/mL penicillin-streptomycin (Invitrogen, cat. 15140122), and 2.5% Matrigel (Corning Inc., Corning, NY, cat. 354248) for the first three passages. The 947758-054-R-J2-PDC line was cultured in 6B/Colon 1A media, which includes advanced DMEM/F-12 (Thermo Fisher Scientific, cat. 12634028), 10 mM HEPES (Thermo Fisher Scientific, cat. 15630080), 1X GlutaMAX supplement (Thermo Fisher Scientific, cat. 35050061), 0.1 mg/mL primocin (InvivoGen, cat. ant-pm-2), 10% defined fetal bovine serum, heat inactivated (HyClone Laboratories Inc., cat. SH30070.03HI), 1.25 mM N-Acetyl-L-cysteine (Sigma-Aldrich, cat. A9165), 10 mM nicotinamide (Sigma-Aldrich, cat. N0636), 1X B-27 supplement (Thermo Fisher Scientific, cat. 17504044), 1X N-2 supplement (Thermo Fisher Scientific, cat. 17502048), and 10 microM Y-27632 dihydrochloride (Tocris Bioscience, cat. 1254). The 876862-298-R-J1-PDC was cultured in 6E media, which includes all 6B/Colon 1A media components plus 50% L-WRN conditioned media (ATCC, cat. CRL-3276), 50 ng/mL recombinant human EGF recombinant protein (hEGF; Thermo Fisher Scientific, cat. PHG0311), 10 ng/mL recombinant human fibroblast growth factor 10 (hGFG-10; PeproTech, cat. 100-26), 1 ng/mL recombinant human fibroblast growth factor 2 (hFGF-2; PeproTech, cat. 100-18B), and 1 µM prostaglandin E2 (PGE2; Tocris, cat. 2296). The 227483-062-R1-J1-PDC line was cultured in Panc media, containing all 6E components except hFGF-2, with the addition of 500 nM SB-431542 (Selleckchem, cat. S1067) and 10 nM gastrin (Tocris, cat. 3006). […]
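Also: spheroids exposed to the compounds for 7 days.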

Structure (SMILES) | IC50 (curve of compound) | IC50 (compound alone, run of 09/18/2023) | viability, T/C (compound 0.00316 µM) | viability, T/C (compound 0.01 µM) | viability, T/C (compound 0.0316 µM) | viability, T/C (compound 0.1 µM) | viability, T/C (compound 0.316 µM) | viability, T/C (compound 1 µM) | viability, T/C (compound 3.16 µM) | viability, T/C (compound 10 µM) | viability, T/C (compound 0.000316 µM) | viability, T/C (compound 0.001 µM) | viability, T/C (compound 0.00949 µM) | viability, T/C (compound 0.03 µM) | viability, T/C (compound 0.0949 µM) | viability, T/C (compound 0.3 µM) | viability, T/C (compound 0.949 µM) | viability, T/C (compound 3 µM)
CCN1CCN(Cc2ccc(Nc3ncc(F)c(-c4cc(F)c5nc(C)n(C(C)C)c5c4)n3)nc2)CC1 | > 1000 nM |  | 107% and 111% | 83.9% and 104% | 89.7% and 115% | 76.6% and 104% | 97.1% and 112% | 156% and 101% |  |  |  |  |  |  |  |  |  | 
CCc1c2c(nc3ccc(O)cc13)-c1cc3c(c(=O)n1C2)COC(=O)[C@]3(O)CC | < 3.16 nM |  | 37.6% and 46.9% | 41% and 49.8% | 32.2% and 42.1% | 32.6% and 36% | 11.1% and 16.2% | 3.13% and 2.22% |  |  |  |  |  |  |  |  |  | 
COC1C=CCC(C)C(C)S(=O)(=O)NC(=O)c2ccc3c(c2)N(CC2CCC21)CC1(CCCc2cc(Cl)ccc21)CO3 (configuration not stated) | 756 nM and 631 nM |  |  |  | 103% and 104% | 72.9% and 83.5% | 65.5% and 53.1% | 50.5% and 46.5% | 25.1% and 30.6% | 12.7% and 13.8% |  |  |  |  |  |  |  | 
Cn1ncnc1[C@H]1c2n[nH]c(=O)c3cc(F)cc(c23)N[C@@H]1c1ccc(F)cc1 | > 100 nM |  | 93.1% and 98.7% | 92.4% and 87.5% | 73.8% and 87% | 69.2% and 77.6% |  |  |  |  | 115% and 86.3% | 96.7% and 94.6% |  |  |  |  |  | 
NC(=O)C(=Cn1cnc(-c2cc(C(F)(F)F)cc(C(F)(F)F)c2)n1)c1cncnc1 | 73 nM and 31.1 nM |  |  |  |  |  |  |  |  |  |  |  | 90.5% and 86% | 72.8% and 48.9% | 43.8% and 30.9% | 18.4% and 12% | 4.77% and 4.05% | 8.1% and 6.28%
Nc1ccn(C2OC(CO)C(O)C2(F)F)c(=O)n1 (configuration not stated) | 311 nM and 572 nM |  |  |  | 81.2% and 81.7% | 78.9% and 76.2% | 49.2% and 54.9% | 31.5% and 44.2% | 25.7% and 40.5% | 30.1% and 32.9% |  |  |  |  |  |  |  | 
O=c1[nH]cc(F)c(=O)[nH]1 | 1990 nM and 4140 nM |  |  |  | 96.6% and 97.4% | 99.9% and 74.5% | 85.2% and 65.8% | 65.2% and 55.6% | 38.4% and 53.1% | 37% and 45.6% |  |  |  |  |  |  |  | 

Continued, in another order:

IC50 (curve of compound) | IC50 (compound alone, run of 09/18/2023) | Structure (SMILES) | viability, T/C (compound 0.00316 µM) | viability, T/C (compound 0.01 µM) | viability, T/C (compound 0.0316 µM) | viability, T/C (compound 0.1 µM) | viability, T/C (compound 0.316 µM) | viability, T/C (compound 1 µM) | viability, T/C (compound 3.16 µM) | viability, T/C (compound 10 µM) | viability, T/C (compound 0.000316 µM) | viability, T/C (compound 0.001 µM) | viability, T/C (compound 0.00949 µM) | viability, T/C (compound 0.03 µM) | viability, T/C (compound 0.0949 µM) | viability, T/C (compound 0.3 µM) | viability, T/C (compound 0.949 µM) | viability, T/C (compound 3 µM)
 | 168 nM [middle of 10 runs] | CN1CCN(c2cc(C(=O)Nc3cc4cc(-c5cnn(C)c5)ccc4cn3)ccn2)CC1 |  |  | 92.8% [middle of 12 runs] | 75.6% [middle of 12 runs] | 19.5% [middle of 12 runs] | 2.43% [middle of 12 runs] | 0.92% [middle of 10 runs] | 0.22% [middle of 9 runs] |  |  |  |  |  |  |  | 
8.88 nM |  | COc1c(OCCCN2CCOCC2)ccc2c3n(c(=NC(=O)c4cnc(N)nc4)nc12)CCN3 | 67% | 48.4% | 22.6% | 10.7% | 5.08% | 3.71% |  |  |  |  |  |  |  |  |  | 
7730 nM and 6990 nM |  | Nc1ccccc1NC(=O)c1ccc(CNC(=O)OCc2cccnc2)cc1 |  |  | 97% and 102% | 95.4% and 87.3% | 90% and 113% | 110% and 124% | 95.8% and 101% | 36.9% and 26.4% |  |  |  |  |  |  |  | 
> 10000 nM |  | O=C(c1cc(Cc2n[nH]c(=O)c3ccccc23)ccc1F)N1CCN(C(=O)C2CC2)CC1 |  |  | 102% and 97.1% | 113% and 78.1% | 95.2% and 74.9% | 91.5% and 85.1% | 86.9% and 76.4% | 83.9% and 71.1% |  |  |  |  |  |  |  | 
